For test [1], the target named is PI 3-kinase alpha (Homo sapiens, UniProt P42336). Description: Kinase Glo Luminescent Kinase Assay (Kglo), assay A. The following applies: read-out: Assay A PI3Kα IC50. Type of test: biochemical.
Test [2] addresses PI 3-kinase beta (Homo sapiens, UniProt P42338). As to the kind of experiment: Kinase Glo Luminescent Kinase Assay (Kglo), assay B. The following applies: read-out: Assay B PI3Kβ IC50. The class given is biochemical.
Test [3] concerns the target Vps34 (Homo sapiens, UniProt Q8NEB9). Description: Kinase Glo Luminescent Kinase Assay (Kglo), assay C. Type of test: biochemical. The following applies: read-out: Assay C VPS34 IC50.
Test [4] deals with PI 4-kinase beta (Homo sapiens, UniProt Q9UBF8). Description: Kinase Glo Luminescent Kinase Assay (Kglo), assay D. The note with it: read-out: Assay D PI4Kβ IC50. The class given is biochemical.
Sequence of PI 4-kinase beta (Q9UBF8 whole entry): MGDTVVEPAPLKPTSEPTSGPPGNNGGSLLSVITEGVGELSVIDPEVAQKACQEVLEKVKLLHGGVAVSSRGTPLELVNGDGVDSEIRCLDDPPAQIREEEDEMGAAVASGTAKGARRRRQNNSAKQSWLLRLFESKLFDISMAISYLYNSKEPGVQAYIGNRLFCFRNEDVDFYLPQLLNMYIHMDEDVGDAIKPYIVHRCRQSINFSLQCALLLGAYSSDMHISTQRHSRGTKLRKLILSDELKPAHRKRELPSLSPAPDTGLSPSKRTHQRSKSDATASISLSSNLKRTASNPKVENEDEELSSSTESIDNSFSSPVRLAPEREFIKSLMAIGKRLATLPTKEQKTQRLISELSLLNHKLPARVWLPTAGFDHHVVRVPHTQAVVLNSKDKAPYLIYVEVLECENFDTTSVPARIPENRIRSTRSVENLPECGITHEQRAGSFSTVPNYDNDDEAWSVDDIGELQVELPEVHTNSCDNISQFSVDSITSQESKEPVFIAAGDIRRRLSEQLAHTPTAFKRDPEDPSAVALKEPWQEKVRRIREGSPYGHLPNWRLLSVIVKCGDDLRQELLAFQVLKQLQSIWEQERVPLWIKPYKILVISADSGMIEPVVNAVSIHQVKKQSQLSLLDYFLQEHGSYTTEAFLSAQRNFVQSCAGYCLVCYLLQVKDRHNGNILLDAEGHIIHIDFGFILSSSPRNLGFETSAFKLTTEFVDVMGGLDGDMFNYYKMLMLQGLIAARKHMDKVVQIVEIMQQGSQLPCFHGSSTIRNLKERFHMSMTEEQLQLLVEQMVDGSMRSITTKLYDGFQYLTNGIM
The target in test [5] is PI 3-kinase gamma (Homo sapiens, UniProt P48736). Description: TR-FRET Adapta assay, assay E. The class given is biochemical. The note with it: read-out: Assay E PI3Kγ IC50.
Sequence of PI 3-kinase gamma (P48736 whole entry): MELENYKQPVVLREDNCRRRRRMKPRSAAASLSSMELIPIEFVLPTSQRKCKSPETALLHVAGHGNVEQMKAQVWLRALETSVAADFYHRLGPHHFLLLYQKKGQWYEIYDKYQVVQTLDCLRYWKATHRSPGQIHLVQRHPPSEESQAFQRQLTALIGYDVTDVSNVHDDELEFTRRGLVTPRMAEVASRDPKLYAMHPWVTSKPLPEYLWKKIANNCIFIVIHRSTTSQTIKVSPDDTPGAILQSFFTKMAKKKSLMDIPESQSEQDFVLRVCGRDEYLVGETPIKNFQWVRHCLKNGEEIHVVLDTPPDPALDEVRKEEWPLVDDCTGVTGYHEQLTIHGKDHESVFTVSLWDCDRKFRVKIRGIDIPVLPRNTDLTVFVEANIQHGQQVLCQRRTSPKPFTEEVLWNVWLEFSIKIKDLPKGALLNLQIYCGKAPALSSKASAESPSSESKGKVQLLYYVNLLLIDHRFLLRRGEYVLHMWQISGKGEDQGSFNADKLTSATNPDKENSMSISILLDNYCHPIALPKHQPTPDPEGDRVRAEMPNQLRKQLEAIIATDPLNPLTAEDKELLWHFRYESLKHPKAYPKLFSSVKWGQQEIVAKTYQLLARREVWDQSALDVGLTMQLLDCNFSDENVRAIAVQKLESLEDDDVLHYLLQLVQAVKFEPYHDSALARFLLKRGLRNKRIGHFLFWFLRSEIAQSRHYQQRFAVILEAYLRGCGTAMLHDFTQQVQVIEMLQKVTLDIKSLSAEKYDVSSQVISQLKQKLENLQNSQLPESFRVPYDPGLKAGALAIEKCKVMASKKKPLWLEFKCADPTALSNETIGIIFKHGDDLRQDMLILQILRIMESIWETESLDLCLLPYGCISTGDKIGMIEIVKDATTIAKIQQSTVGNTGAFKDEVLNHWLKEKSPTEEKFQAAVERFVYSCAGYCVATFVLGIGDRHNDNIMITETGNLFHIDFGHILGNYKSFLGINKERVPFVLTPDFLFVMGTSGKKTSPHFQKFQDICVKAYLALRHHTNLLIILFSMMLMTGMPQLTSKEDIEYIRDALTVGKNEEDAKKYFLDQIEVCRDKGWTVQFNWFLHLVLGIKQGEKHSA
Test [6] addresses mTOR (Homo sapiens, UniProt P42345). Description: Lanthascreen kinase binding assay, assay G. The following applies: read-out: Assay G mTOR IC50.
Experimental: Lanthascreen™ Kinase Binding Assay for mTOR (G)
Binding of an inhibitor to the kinase competes for binding with the tracer, resulting in a loss of FRET.
50 nL of compound dilutions were dispensed onto white 384-well small volume polystyrene plate.
Test [7] addresses PI 3-kinase delta (Homo sapiens, UniProt O00329). Description: TR-FRET Adapta assay, assay F.

Among the data in patent US10004732B2 (Novartis AG, priority 2014, dated 2018) are IC50 values, retold here.

Counter-ions that a name gives are not always drawn. Like-named read-outs stand apart in the source and are kept apart here.

Sequence of PI 3-kinase alpha (P42336 whole entry): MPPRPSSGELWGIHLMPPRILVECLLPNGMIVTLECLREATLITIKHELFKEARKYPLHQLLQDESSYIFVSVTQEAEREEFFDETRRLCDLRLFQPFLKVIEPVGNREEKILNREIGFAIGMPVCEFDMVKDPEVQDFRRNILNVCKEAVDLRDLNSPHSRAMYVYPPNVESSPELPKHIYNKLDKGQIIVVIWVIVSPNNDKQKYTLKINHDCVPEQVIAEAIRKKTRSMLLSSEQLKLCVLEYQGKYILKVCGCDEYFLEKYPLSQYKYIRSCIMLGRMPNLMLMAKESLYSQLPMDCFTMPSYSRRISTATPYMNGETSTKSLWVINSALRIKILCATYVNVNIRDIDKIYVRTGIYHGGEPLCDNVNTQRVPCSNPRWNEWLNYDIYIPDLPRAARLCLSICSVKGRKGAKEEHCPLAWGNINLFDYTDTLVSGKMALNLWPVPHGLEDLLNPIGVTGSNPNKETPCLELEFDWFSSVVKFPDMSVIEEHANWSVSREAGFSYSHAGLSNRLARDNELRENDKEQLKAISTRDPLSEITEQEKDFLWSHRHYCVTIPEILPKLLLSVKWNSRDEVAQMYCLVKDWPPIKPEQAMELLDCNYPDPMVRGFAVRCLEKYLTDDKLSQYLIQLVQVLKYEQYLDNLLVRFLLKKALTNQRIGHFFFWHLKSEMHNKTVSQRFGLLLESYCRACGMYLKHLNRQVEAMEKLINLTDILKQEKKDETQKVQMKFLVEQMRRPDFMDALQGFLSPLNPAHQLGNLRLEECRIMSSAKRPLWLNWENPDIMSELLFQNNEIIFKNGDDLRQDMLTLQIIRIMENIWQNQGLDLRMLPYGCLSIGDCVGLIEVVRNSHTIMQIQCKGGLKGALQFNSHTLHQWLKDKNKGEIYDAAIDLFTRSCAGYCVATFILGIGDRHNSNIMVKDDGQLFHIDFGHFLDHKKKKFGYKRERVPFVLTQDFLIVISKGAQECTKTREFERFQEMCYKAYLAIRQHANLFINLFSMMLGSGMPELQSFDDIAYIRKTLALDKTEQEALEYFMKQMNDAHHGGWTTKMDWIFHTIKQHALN
Sequence of PI 3-kinase delta (O00329 whole entry): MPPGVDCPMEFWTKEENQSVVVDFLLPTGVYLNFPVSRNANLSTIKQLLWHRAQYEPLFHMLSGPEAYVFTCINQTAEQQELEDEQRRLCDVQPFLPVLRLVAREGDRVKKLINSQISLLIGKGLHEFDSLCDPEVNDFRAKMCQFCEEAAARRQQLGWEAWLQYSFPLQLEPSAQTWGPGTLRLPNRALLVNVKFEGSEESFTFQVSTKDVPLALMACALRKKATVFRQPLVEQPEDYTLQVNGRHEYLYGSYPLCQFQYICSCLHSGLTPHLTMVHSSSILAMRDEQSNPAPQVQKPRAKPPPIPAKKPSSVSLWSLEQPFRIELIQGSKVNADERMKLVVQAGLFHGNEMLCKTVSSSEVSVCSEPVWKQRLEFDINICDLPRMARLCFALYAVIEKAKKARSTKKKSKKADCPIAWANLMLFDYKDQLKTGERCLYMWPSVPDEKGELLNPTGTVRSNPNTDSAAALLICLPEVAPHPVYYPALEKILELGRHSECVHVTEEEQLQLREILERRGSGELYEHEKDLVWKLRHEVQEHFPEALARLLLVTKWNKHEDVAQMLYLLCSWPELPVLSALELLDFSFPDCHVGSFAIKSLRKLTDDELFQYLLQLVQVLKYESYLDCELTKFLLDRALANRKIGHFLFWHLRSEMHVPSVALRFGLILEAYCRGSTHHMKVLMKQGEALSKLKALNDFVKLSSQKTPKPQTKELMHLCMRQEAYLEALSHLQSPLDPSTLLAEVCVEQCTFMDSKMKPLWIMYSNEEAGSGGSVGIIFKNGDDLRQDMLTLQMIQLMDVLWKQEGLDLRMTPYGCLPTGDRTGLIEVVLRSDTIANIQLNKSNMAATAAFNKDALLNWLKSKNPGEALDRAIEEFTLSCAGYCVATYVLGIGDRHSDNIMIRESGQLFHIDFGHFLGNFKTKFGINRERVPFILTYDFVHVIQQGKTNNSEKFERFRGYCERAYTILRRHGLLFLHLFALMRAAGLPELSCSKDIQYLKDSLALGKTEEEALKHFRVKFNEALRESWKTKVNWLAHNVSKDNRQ
Sequence of PI 3-kinase delta (P27986 461-568 partner): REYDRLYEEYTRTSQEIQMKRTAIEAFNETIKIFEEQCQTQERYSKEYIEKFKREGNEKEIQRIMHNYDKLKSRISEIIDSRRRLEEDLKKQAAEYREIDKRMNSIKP
Sequence of Vps34 (Q8NEB9 whole entry, species assumed): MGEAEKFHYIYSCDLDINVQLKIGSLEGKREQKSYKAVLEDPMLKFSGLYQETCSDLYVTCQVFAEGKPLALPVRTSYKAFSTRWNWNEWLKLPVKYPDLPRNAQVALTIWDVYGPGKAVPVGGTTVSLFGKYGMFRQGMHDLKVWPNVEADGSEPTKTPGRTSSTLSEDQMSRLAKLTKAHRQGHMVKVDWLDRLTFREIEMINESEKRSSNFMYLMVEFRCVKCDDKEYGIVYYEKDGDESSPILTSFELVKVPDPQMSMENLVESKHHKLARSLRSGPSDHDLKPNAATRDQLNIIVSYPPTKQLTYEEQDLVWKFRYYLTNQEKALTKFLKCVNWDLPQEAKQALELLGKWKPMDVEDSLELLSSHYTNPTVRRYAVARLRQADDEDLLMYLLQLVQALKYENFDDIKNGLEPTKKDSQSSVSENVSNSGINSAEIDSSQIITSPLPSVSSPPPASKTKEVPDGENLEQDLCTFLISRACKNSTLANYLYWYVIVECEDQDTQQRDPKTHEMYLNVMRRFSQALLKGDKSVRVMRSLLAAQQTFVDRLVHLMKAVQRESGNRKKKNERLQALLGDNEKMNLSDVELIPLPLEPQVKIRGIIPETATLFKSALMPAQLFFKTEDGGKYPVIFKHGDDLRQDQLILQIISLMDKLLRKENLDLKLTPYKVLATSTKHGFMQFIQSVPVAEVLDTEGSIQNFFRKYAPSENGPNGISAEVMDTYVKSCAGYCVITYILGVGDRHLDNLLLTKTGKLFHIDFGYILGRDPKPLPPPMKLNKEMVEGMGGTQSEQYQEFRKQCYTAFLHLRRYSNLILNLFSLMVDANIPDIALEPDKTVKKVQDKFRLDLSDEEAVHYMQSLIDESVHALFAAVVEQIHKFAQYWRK

`Cc1cc(-c2nc(-c3cc(S(=O)(=O)NC[C@H]4CCC[C@@H](CN)C4)ccc3C)cnc2N)ccn1` [Example 129.42, 3-(5-amino-6-(2-methylpyridin-4-yl)pyrazin-2-yl)-N-(((1S,3R)-3-(aminomethyl)cyclohexyl)methyl)-4-methylbenzenesulfonamide]: the IC50 was 2000 nM in test [1]; 6600 nM in test [2]; above 9100 nM in test [3]; above 9100 nM in test [4]; 150 nM in test [5]; above 9100 nM in test [6]. Moreover, in test [7] (read-out: Assay F PI3Kδ IC50), the IC50 stood at 1700 nM.

Turning to `Cc1cc(-c2nc(-c3cc(S(=O)(=O)N[C@H]4CC[C@H](N)CC4)ccc3C)cnc2N)ccn1` [Example 129.43, 3-(5-amino-6-(2-methylpyridin-4-yl)pyrazin-2-yl)-N-((1r,4r)-4-aminocyclohexyl)-4-methylbenzenesulfonamide], the IC50 in test [1] was 3000 nM; in test [2], 5700 nM; in test [3], above 9100 nM; in test [4], above 9100 nM; in test [5] it was 1000 nM; in test [6], above 9100 nM. Moreover, in test [7] (read-out: Assay F PI3Kδ IC50), the IC50 worked out at 2300 nM.

`Cc1cc(-c2nc(-c3cc(S(=O)(=O)NC4CCN(C)CC4)ccc3C)cnc2N)ccn1` [Example 129.22, 3-(5-amino-6-(2-methylpyridin-4-yl)pyrazin-2-yl)-4-methyl-N-(1-methylpiperidin-4-yl)benzenesulfonamide]: the IC50 in test [1] was 1500 nM; in test [2] it was above 9100 nM; in test [3], above 9100 nM; in test [4], above 9100 nM; in test [5], 280 nM; in test [6], above 9100 nM. Besides, the IC50 in test [7] (read-out: Assay F PI3Kδ IC50) was 7500 nM.

In the case of `Cc1ccc(S(=O)(=O)NCC2(CO)CCC2)cc1-c1cnc(N)c(-n2cncn2)n1` [Example 127.49], the IC50 in test [1] was 100 nM; in test [2], 460 nM; in test [3], above 10000 nM; in test [4], 4000 nM; in test [5] it was 13 nM; in test [6], 7000 nM. For the same molecule, in test [7] (read-out: Assay F PI3Kδ IC50), the IC50 was 320 nM.

Turning to `Cc1cc(-c2nc(-c3cc(S(=O)(=O)NCCN)ccc3C)cnc2N)ccn1` [Example 129.34, 3-(5-amino-6-(2-methylpyridin-4-yl)pyrazin-2-yl)-N-(2-aminoethyl)-4-methylbenzenesulfonamide], the IC50 in test [1] was 700 nM; in test [2], above 9100 nM; in test [3] it was above 9100 nM; in test [4], above 9100 nM; in test [5], 110 nM; in test [6], above 9100 nM. The IC50 in test [7] (read-out: Assay F PI3Kδ IC50) was found to be 1200 nM.

Consider `Cc1ccc(S(=O)(=O)NC2CCSC2=O)cc1-c1cnc(N)c(-n2cncn2)n1` (stereo not shown) [Example 127.51], for which the IC50 is 600 nM in test [1]; 1900 nM in test [2]; above 10000 nM in test [3]; 5300 nM in test [4]; 65 nM in test [5]; 5900 nM in test [6]. Further, the IC50 in test [7] (read-out: Assay F PI3Kδ IC50) is 580 nM.

On to `Cc1ccc(S(=O)(=O)NCC2(CO)CCOCC2)cc1-c1cnc(N)c(-n2cncn2)n1` [Example 127.50], for which the IC50 in test [1] was 840 nM; in test [2], 1400 nM; in test [3] it was above 10000 nM; in test [4], above 10000 nM; in test [5] it was 32 nM; in test [6] it was 5600 nM. For the same molecule, the IC50 in test [7] (read-out: Assay F PI3Kδ IC50) is 2100 nM.

For the molecule `Cc1cc(-c2nc(-c3cc(S(=O)(=O)N[C@H]4CCC[C@@H]4N)ccc3C)cnc2N)ccn1` [Example 129.38, 3-(5-amino-6-(2-methylpyridin-4-yl)pyrazin-2-yl)-N-((1S,2S)-2-aminocyclopentyl)-4-methylbenzenesulfonamide], the IC50 is 1600 nM in test [1]; 2700 nM in test [2]; above 9100 nM in test [3]; above 9100 nM in test [4]; 820 nM in test [5]; above 9100 nM in test [6]. Further, in test [7], the IC50 was determined as 4500 nM.

As for `Cc1ccc(S(=O)(=O)N[C@@H]2CNC[C@H]2O)cc1-c1cnc(N)c(-n2cncn2)n1` [Example 127.60, 3-(5-amino-6-(1H-1,2,4-triazol-1-yl)pyrazin-2-yl)-N-((3R,4R)-4-hydroxypyrrolidin-3-yl)-4-methylbenzenesulfonamide trifluoroacetic acid salt], the IC50 in test [1] was 960 nM; in test [2], 730 nM; in test [3], above 10000 nM; in test [4], 3300 nM; in test [5] it was 140 nM; in test [6] it was above 10000 nM. Further, in test [7], the IC50 is 2400 nM.

In the case of `Cc1ccc(S(=O)(=O)NC2CCOC2=O)cc1-c1cnc(N)c(-n2cncn2)n1` (stereo not shown) [Example 127.30], the IC50 in test [1] is 1900 nM; in test [2], 5300 nM; in test [3], above 10000 nM; in test [4], 7700 nM; in test [5], 130 nM; in test [6] it was above 10000 nM. Also, in test [7] (read-out: Assay F PI3Kδ IC50), the IC50 was 1600 nM.

Turning to `Cc1cc(-c2nc(-c3cc(S(=O)(=O)N4CC[C@@H](N)C4)ccc3C)cnc2N)ccn1` [Example 129.40, (R)-5-(5-(3-aminopyrrolidin-1-ylsulfonyl)-2-methylphenyl)-3-(2-methylpyridin-4-yl)pyrazin-2-amine], the IC50 in test [1] was 670 nM; in test [2], 6400 nM; in test [3] it was above 9100 nM; in test [4], above 9100 nM; in test [5], 1100 nM; in test [6], above 9100 nM. Further, the IC50 in test [7] (read-out: Assay F PI3Kδ IC50) was 4000 nM.

As for `CCN(CC)CCCNS(=O)(=O)c1ccc(C)c(-c2cnc(N)c(-c3ccnc(C)c3)n2)c1` [Example 129.23, 3-(5-amino-6-(2-methylpyridin-4-yl)pyrazin-2-yl)-N-(3-(diethylamino)propyl)-4-methylbenzenesulfonamide], the IC50 in test [1] is 2800 nM; in test [2], 3300 nM; in test [3], above 9100 nM; in test [4], above 9100 nM; in test [5], 380 nM; in test [6] it was above 9100 nM. Also, in test [7] (read-out: Assay F PI3Kδ IC50), the IC50 stood at 1900 nM.

With `Cc1nc(-c2nc(-c3cc(S(=O)(=O)NCCC(C)(C)O)ccc3C)cnc2N)cs1` [Example 119.30], the IC50 in test [1] was 170 nM; in test [2] it was 1500 nM; in test [3], above 9100 nM; in test [4], 4710 nM; in test [5], 13 nM; in test [6] it was 2880 nM. Besides, the IC50 in test [7] (read-out: Assay F PI3Kδ IC50) worked out at 110 nM.

As to `Cc1cc(-c2nc(-c3cc(S(=O)(=O)NC4CCOCC4)ccc3C)cnc2N)ccn1` [Example 129.10, 3-(5-amino-6-(2-methylpyridin-4-yl)pyrazin-2-yl)-4-methyl-N-(tetrahydro-2H-pyran-4-yl)benzenesulfonamide], the IC50 in test [1] is 550 nM; in test [2], above 9100 nM; in test [3] it was above 9100 nM; in test [4], 6200 nM; in test [5], 27 nM; in test [6], above 9100 nM. The IC50 in test [7] (read-out: Assay F PI3Kδ IC50) amounted to 940 nM.

As to `Cc1cc(-c2nc(-c3cc(S(=O)(=O)NCC4(O)CCCCC4)ccc3C)cnc2N)ccn1` [Example 129.4, 3-(5-amino-6-(2-methylpyridin-4-yl)pyrazin-2-yl)-N-((1-hydroxycyclohexyl)methyl)-4-methylbenzenesulfonamide], the IC50 is 190 nM in test [1]; above 9100 nM in test [2]; above 9100 nM in test [3]; above 9100 nM in test [4]; 69 nM in test [5]; 5000 nM in test [6]. The IC50 in test [7] (read-out: Assay F PI3Kδ IC50) worked out at 430 nM.

Take `Cc1cc(-c2nc(-c3cc(S(=O)(=O)NCC4CCN(C)C4)ccc3C)cnc2N)ccn1` (stereo not shown) [Example 129.30, 3-(5-amino-6-(2-methylpyridin-4-yl)pyrazin-2-yl)-4-methyl-N-((1-methylpyrrolidin-3-yl)methyl)benzenesulfonamide]: the IC50 in test [1] was 5400 nM; in test [2], above 9100 nM; in test [3] it was above 9100 nM; in test [4], above 9100 nM; in test [5], 41 nM; in test [6], above 9100 nM. In addition, the IC50 in test [7] (read-out: Assay F PI3Kδ IC50) was determined as 1200 nM.

Turning to `Cc1ccc(S(=O)(=O)NCCCCCO)cc1-c1cnc(N)c(-n2cncn2)n1` [Example 127.9], the IC50 in test [1] is 2300 nM; in test [2] it was above 10000 nM; in test [3] it was above 10000 nM; in test [4] it was above 10000 nM; in test [5], 1600 nM; in test [6], above 10000 nM. Further, the IC50 in test [7] (read-out: Assay F PI3Kδ IC50) was found to be 3000 nM.

Take `Cc1cc(-c2nc(-c3cc(S(=O)(=O)N4CC5(CNC5)C4)ccc3C)cnc2N)ccn1` [Example 129.37, 5-(5-(2,6-diazaspiro[3.3]heptan-2-ylsulfonyl)-2-methylphenyl)-3-(2-methylpyridin-4-yl)pyrazin-2-amine]: the IC50 is 1300 nM in test [1]; above 9100 nM in test [2]; above 9100 nM in test [3]; 8300 nM in test [4]; 540 nM in test [5]; above 9100 nM in test [6]. In addition, the IC50 in test [7] (read-out: Assay F PI3Kδ IC50) is 2800 nM.

In the case of `CC[C@@H](CO)NS(=O)(=O)c1ccc(C)c(-c2cnc(N)c(-c3ccnc(C)c3)n2)c1` [Example 129.6, (S)-3-(5-amino-6-(2-methylpyridin-4-yl)pyrazin-2-yl)-N-(1-hydroxybutan-2-yl)-4-methylbenzenesulfonamide], the IC50 in test [1] is 740 nM; in test [2], above 9100 nM; in test [3], above 9100 nM; in test [4], above 9100 nM; in test [5] it was 270 nM; in test [6], above 9100 nM. Moreover, in test [7] (read-out: Assay F PI3Kδ IC50), the IC50 is 2800 nM.
